# Patent US10246465B2 (priority 2014, dated 2019)
# Target: human σ1 receptor (Homo sapiens, UniProt Q99720)
# Assay: biochemical
# Type: binding
# Set-up: μ and σ1 dual binding: key to the marks not given beside the values
# Settings: one combined class from Ki at human σ1 receptor (A1) and Ki at human μ-opioid receptor (A2)
# Experimental: Human σ1 Receptor Radioligand Assay
# The assay was carried out with 7 μg of membrane suspension, 5 nM of [^3H](+)-pentazocine in either absence or presence of either buffer or 10 μM Haloperidol for total and non-specific binding, respectively. Binding buffer contained Tris-HCl 50 mM at pH 8. Plates were incubated at 37° C. for 120 minutes. After the incubation period, the reaction mix was then transferred to MultiScreen HTS, FC plates (Millipore), filtered and plates were washed 3 times with ice-cold 10 mM Tris-HCL (pH7.4). Filters were dried and counted at approximately 40% efficiency in a MicroBeta scintillation counter (Perkin-Elmer) using EcoScint liquid scintillation cocktail
# human σ1 receptor, sequence (Q99720 whole entry): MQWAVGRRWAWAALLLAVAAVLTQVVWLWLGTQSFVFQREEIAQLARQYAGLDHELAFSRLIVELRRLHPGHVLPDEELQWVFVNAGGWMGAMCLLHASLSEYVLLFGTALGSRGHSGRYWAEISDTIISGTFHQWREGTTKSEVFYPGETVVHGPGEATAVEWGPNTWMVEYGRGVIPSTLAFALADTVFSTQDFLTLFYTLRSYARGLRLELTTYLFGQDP
row,SMILES,μ and σ1 dual binding
1,"CCN1CC2(CCN(CCc3ncccc3F)CC2)OC2(CC2)C1=O.Cl [Example 3, 12-ethyl-8-[2-(3-fluoropyridin-2-yl)ethyl]-4-oxa-8,12-diazadispiro[2.1.5.3]tridecan-13-one hydrochloride]",++
2,"CCN1CC2(CCN(CCc3cc(C(F)(F)F)ccn3)CC2)OC2(CC2)C1=O.Cl [Example 4, 12-ethyl-8-{2-[4-(trifluoromethyl)pyridin-2-yl]ethyl}-4-oxa-8,12-diazadispiro[2.1.5.3]tridecan-13-one hydrochloride]",++
3,"CCN1CC2(CCN(CCc3ncccc3Cl)CC2)OC2(CC2)C1=O.Cl [Example 5, 8-[2-(3-chloropyridin-2-yl)ethyl]-12-ethyl-4-oxa-8,12-diazadispiro[2.1.5.3]tridecan-13-one hydrochloride]",++
4,"CCN1CC2(CCN(CCc3cccc(N)n3)CC2)OC2(CC2)C1=O [Example 6, 8-[2-(6-aminopyridin-2-yl)ethyl]-12-ethyl-4-oxa-8,12-diazadispiro[2.1.5.3]tridecan-13-one]",++
5,"CCN1CC2(CCN(CCc3ccncc3)CC2)OC2(CC2)C1=O [Example 23, 12-ethyl-8-[2-(pyridin-4-yl)ethyl]-4-oxa-8,12-diazadispiro[2.1.5.3]tridecan-13-one]",++
6,"CCN1CC2(CCN(CCc3cccc(C#N)c3)CC2)OC2(CC2)C1=O.Cl [Example 27, 3-(2-{12-ethyl-13-oxo-4-oxa-8,12-diazadispiro[2.1.5.3]tridecan-8-yl}ethyl)benzonitrile hydrochloride]",++
7,"CN1CC2(CCN(CCc3ccccc3F)CC2)OC2(CC2)C1=O.Cl [Example 29, 8-[2-fluorophenethyl]-12-methyl-4-oxa-8,12-diazadispiro[2.1.5.3]tridecan-13-one hydrochloride]",++
8,"C[C@H]1OC2(CCN(CCc3ccccc3OC(F)(F)F)CC2)CN(C)C1=O.Cl [Example 45, (R)-2,4-dimethyl-9-(2-(trifluoromethoxy)phenethyl)-1-oxa-4,9-diazaspiro[5.5]undecan-3-one hydrochloride]",++
9,"C[C@H]1OC2(CCN(CCc3ccccc3C(F)(F)F)CC2)CN(C)C1=O.Cl [Example 48, (R)-2,4-dimethyl-9-(2-(trifluoromethyl)phenethyl)-1-oxa-4,9-diazaspiro[5.5]undecan-3-one hydrochloride]",++
10,"CC(C)N1CC2(CCN(CCc3c(F)cccc3F)CC2)O[C@H](C)C1=O.Cl [Example 49, (R)-9-(2,6-difluorophenethyl)-4-isopropyl-2-methyl-1-oxa-4,9-diazaspiro[5.5]undecan-3-one hydrochloride]",++
11,"CN1CC2(CCN(CCc3ccccc3)CC2)OC(C)(C)C1=O.Cl [Example 54, 2,2,4-trimethyl-9-phenethyl-1-oxa-4,9-diazaspiro[5.5]undecan-3-one hydrochloride]",++
12,"CCN1CC2(CCN(CCc3cccc(NC(C)=O)c3)CC2)OC2(CC2)C1=O [Example 57, N-[3-(2-{12-ethyl-13-oxo-4-oxa-8,12-diazadispiro[2.1.5.3]tridecan-8-yl}ethyl)phenyl]acetamide]",++
13,"CCN1CC2(CCN(CCc3cccc(NC(N)=O)c3)CC2)OC2(CC2)C1=O [Example 58, [3-(2-{12-ethyl-13-oxo-4-oxa-8,12-diazadispiro[2.1.5.3]tridecan-8-yl}ethyl)phenyl]urea]",++
14,"CCN1CC2(CCN(CCc3ccc(C(=O)NC)cc3)CC2)OC2(CC2)C1=O.Cl [Example 59, 4-(2-{12-ethyl-13-oxo-4-oxa-8,12-diazadispiro[2.1.5.3]tridecan-8-yl}ethyl)-N-methylbenzamide hydrochloride]",++
15,"CCN1CC2(CCN(CCc3ccccc3O)CC2)OC2(CC2)C1=O [Example 60, 12-ethyl-8-(2-hydroxyphenethyl)-4-oxa-8,12-diazadispiro[2.1.5.3]tridecan-13-one]",++
16,"CCN1CC2(CCN(CCc3ccc(O)cc3)CC2)OC2(CC2)C1=O.Cl [Example 62, 12-ethyl-8-(4-hydroxyphenethyl)-4-oxa-8,12-diazadispiro[2.1.5.3]tridecan-13-one hydrochloride]",++
17,"C[C@H]1OC2(CCN(CCc3cccc(F)c3F)CC2)CN(C)C1=O [Example 74, (R)-9-(2,3-difluorophenethyl)-2,4-dimethyl-1-oxa-4,9-diazaspiro[5.5]undecan-3-one]",++
18,"C[C@H]1OC2(CCN(CCc3cc(F)ccc3F)CC2)CN(C)C1=O [Example 81, (R)-9-(2,5-difluorophenethyl)-2,4-dimethyl-1-oxa-4,9-diazaspiro[5.5]undecan-3-one]",++
19,"CC1(C)OC2(CCN(CCc3cccc(F)c3F)CC2)CN(C2CC2)C1=O [Example 85, 4-cyclopropyl-9-(2,3-difluorophenethyl)-2,2-dimethyl-1-oxa-4,9-diazaspiro[5.5]undecan-3-one]",++
20,"CCN1CC2(CCN(CCc3cccc(F)c3F)CC2)O[C@H](C)C1=O [Example 87, (R)-9-(2,3-difluorophenethyl)-4-ethyl-2-methyl-1-oxa-4,9-diazaspiro[5.5]undecan-3-one]",++
21,"CCN1CC2(CCN(CCc3cccc(F)c3F)CC2)OC(C)(C)C1=O [Example 89, 9-(2,3-difluorophenethyl)-4-ethyl-2,2-dimethyl-1-oxa-4,9-diazaspiro[5.5]undecan-3-one]",++
22,"C[C@H]1OC2(CCN(CCc3cccc(F)c3F)CC2)CN(C2CC2)C1=O [Example 91, (R)-4-cyclopropyl-9-(2,3-difluorophenethyl)-2-methyl-1-oxa-4,9-diazaspiro[5.5]undecan-3-one]",++
23,"CN1CC2(CCN(CCc3ccccc3)CC2)O[C@H](CCO)C1=O [Example 94, (R)-2-(2-hydroxyethyl)-4-methyl-9-phenethyl-1-oxa-4,9-diazaspiro[5.5]undecan-3-one]",++
24,"CN1CC2(CCN(CCc3ccccc3)CC2)O[C@H](Cc2ccccc2)C1=O [Example 95, (R)-2-benzyl-4-methyl-9-phenethyl-1-oxa-4,9-diazaspiro[5.5]undecan-3-one]",++

# Same assay, conditions: one combined class from Ki at human σ1 receptor (A1) and Ki at human μ-opioid receptor (A2); read-out: μ and σ1 dual binding
row,Ki [nM],SMILES
1,> 500,"CCN1CC2(CCN(CCc3cccc(N)c3)CC2)OC2(CC2)C1=O [Example 56, 8-(3-aminophenethyl)-12-ethyl-4-oxa-8,12-diazadispiro[2.1.5.3]tridecan-13-one]"
